Results reported in patent US20070244169A1, “GLUCOKINASE ACTIVATORS” (priority 2005, published 2007).

Molecular target: T1, GST-hLGK1 (GK) (Homo sapiens, UniProt P35557)
T1 construct: GST (N); made in house
T1 sequence (P35557 1-464 isoform P35557-3): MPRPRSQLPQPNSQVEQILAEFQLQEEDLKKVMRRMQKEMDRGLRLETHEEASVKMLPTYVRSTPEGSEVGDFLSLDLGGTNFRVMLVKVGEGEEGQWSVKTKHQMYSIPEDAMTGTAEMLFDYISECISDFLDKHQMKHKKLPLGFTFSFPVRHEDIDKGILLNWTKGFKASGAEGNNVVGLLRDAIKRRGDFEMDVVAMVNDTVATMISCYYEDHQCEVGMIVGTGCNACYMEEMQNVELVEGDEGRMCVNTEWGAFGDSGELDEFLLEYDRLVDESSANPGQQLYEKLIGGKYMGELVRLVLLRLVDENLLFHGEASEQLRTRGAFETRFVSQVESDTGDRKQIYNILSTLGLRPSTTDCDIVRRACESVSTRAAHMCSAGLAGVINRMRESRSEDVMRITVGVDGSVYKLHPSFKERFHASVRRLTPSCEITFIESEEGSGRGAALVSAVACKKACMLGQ
Test: GK activation assay with GST-hLGK1 and Mant-ATP, capillary electrophoresis readout
Assay type: biochemical
Conditions: GST-hLGK1 6 μg/mL, 50 μM Mant-ATP, 25 mM D-glucose solution (10 μL) added, 37° C. for 60 min; concentration for 50% of the maximum activity value; read-out: EC50 of Exemplified Compounds against GK
Method: A 50% solution (5 μL) of the test compound in dimethyl sulfoxide was added to each well of a 384 well black plate (Nalge Nunc). Then, 35 μL of a liquid obtained by diluting GST-hLGK1 obtained in Reference Example 2A with a measurement buffer (50 mM HEPES (pH 7.4), containing 200 mM KCl, 5 mM MgCl2, 2.5 mM DTT and 50 μM 2′-(or-3′)—O—(N-methylanthraniloyl)adenosine 5′-triphosphate (Mant-ATP) (Jena Bioscience)) was added to each well to 6 μg/mL. Each well was maintained at 37° C. for 10 min, and a 25 mM D-glucose solution (10 μL) was added to start the reaction. After the start of the reaction, each well was allowed to stand at 37° C. for 60 min, before quenching the reaction by adding 25 μL of a reaction quenching solution (200 mM HEPES (pH 7.4), containing 20 mM MgCl2, 200 mM EDTA, 0.03% Triton-X 100, 0.3% Coating 3 reagent (Caliper Life Sciences)).
Mant-ATP (substrate) and Mant-ADP (reaction resultant product) were separated from each well after quenching the reaction, with a microchip type capillary electrophoresis apparatus 250HTS (Caliper Life Sciences). The reaction rate [(peak height of reaction resultant product)/(peak height of reaction resultant product+peak height of substrate)×100(%)] was calculated from the ratio of the substrate peak height and the reaction resultant product peak height, which were obtained by fluorescence detection (excitation wavelength 355 nm, measurement wavelength 460 nm), and used as an index of the GK activity.
For the control, the reaction rate was calculated in the same manner as above, except that a “50% dimethyl sulfoxide solution” was used instead of the “50% solution of the test compound in dimethyl sulfoxide”.
A percentage obtained by dividing the reaction rate of the well with the test compound (test compound addition group) by the reaction rate of the well with a 50% dimethyl sulfoxide solution alone (control group) was taken as the GK activation value by the test compound, and the concentration of the test compound necessary for the activation of 50% of the maximum activity value determined as an EC50 value.

Row | SMILES | EC50 [nM]
1 | Brc1ccc2[nH]nc(Nc3nccs3)c2c1 [Compound 7, 5-Bromo-N-1,3-thiazol-2-yl-1H-indazol-3-amine] | 5000
2 | Cn1nc(Nc2nccs2)c2cc(C(F)(F)F)ccc21 [Compound 9, 1-Methyl-N-1,3-thiazol-2-yl-5-(trifluoromethyl)-1H-indazol-3-amine] | 2500
3 | CC(=O)Nc1ccc2[nH]nc(Nc3nccs3)c2c1 [Compound 22, N-[3-(1,3-Thiazol-2-ylamino)-1H-indazol-5-yl]acetamide] | 15000
4 | CC(=O)c1ccc2[nH]nc(Nc3nccs3)c2c1 [Compound 25, 1-[3-(1,3-Thiazol-2-ylamino)-1H-indazol-5-yl]ethanone] | 8600
5 | O=[N+]([O-])c1ccc2[nH]nc(Nc3nccs3)c2c1 [Compound 20, 5-Nitro-N-1,3-thiazol-2-yl-1H-indazol-3-amine] | 6600

Results, then the compound that gave them:

Row | EC50 [nM] | SMILES
6 | 1200 | CC(C)Cc1ccc2[nH]nc(Nc3nccs3)c2c1 [Compound 29, 5-Isobutyl-N-1,3-thiazol-2-yl-1H-indazol-3-amine]
7 | 2900 | CC(C)c1ccc2[nH]nc(Nc3nccs3)c2c1 [Compound 33, 5-Isopropyl-N-1,3-thiazol-2-yl-1H-indazol-3-amine]
8 | 2400 | COCC(C)Oc1ccc2[nH]nc(Nc3nccs3)c2c1 (stereo not drawn) [Compound 35, 5-(2-Methoxy-1-methylethoxy)-N-1,3-thiazol-2-yl-1H-indazol-3-amine]
9 | 1700 | CC(C)Oc1ccc2[nH]nc(Nc3nccs3)c2c1 [Compound 34, 5-Isopropoxy-N-1,3-thiazol-2-yl-1H-indazol-3-amine]
